In assay [1] the test system is Intestinimonas strain AF211. As to the kind of experiment: Antibiotic sensitivity (MIC) of Intestinimonas strain AF211. Type of assay: cell-based, Intestinimonas butyriciproducens. Here is the method:
“Minimum inhibitory concentration” or “MIC” as used herein refers to the lowest concentration of an antimicrobial that will inhibit the visible growth of a microorganism after overnight incubation. Minimum inhibitory concentrations are important in diagnostic laboratories to confirm resistance of microorganisms to an antimicrobial agent and also to monitor the activity of new antimicrobial agents. An MIC is generally regarded as the most basic laboratory measurement of the activity of an antimicrobial agent against an organism.
Rettedal et al. (Nature Comm. (2014), 5:4714) describe the use of antibiotics to isolate and culture bacteria from the human intestinal tract. However, this approach often results in antibiotic-resistant bacteria and these are undesired in formulations aimed for human or animal use.
Strain AF211 had the following sensitivity to various antibiotics: […]

Assay [2] has as its system Intestinimonas strain P1C2. Conditions: against Intestinimonas strain P1C2, described as resistant; cited from earlier work.
Where [3] appears, read: Intestinimonas butyriciproducens, against strain AF211, read-out: MIC.

Values after ≈ are worked out from the molar mass of the structure shown. Where two headings read alike, the source gives them in different places.

Among the data in patent US11426436B2, “Bacteria-comprising compositions and methods of using the same for treating and/or preventing gastrointestinal, metabolic and/or other diseases” (priority 2015, dated 2022) are MIC and MIC of erythromycin values, retold here.

For orientation: MIC means the lowest concentration that inhibits growth of the organism. Turning to `CC[C@H]1OC(=O)[C@H](C)[C@@H](O[C@H]2C[C@@](C)(OC)[C@@H](O)[C@H](C)O2)[C@H](C)[C@@H](O[C@@H]2O[C@H](C)C[C@H](N(C)C)[C@H]2O)[C@](C)(O)C[C@@H](C)C(=O)[C@H](C)[C@@H](O)[C@]1(C)O` [Erythromycin], the MIC in assay [1] (Intestinimonas butyriciproducens, against strain AF211, text value, read-out: MIC of erythromycin) is 1 µg/mL; in assay [1] (setting [3]) it was 0.75 to 1 µg/mL (≈ 1.02 to 1.36 µM). Further, the MIC of erythromycin in assay [2] is 32 µg/mL. Take `Cc1onc(-c2ccccc2)c1C(=O)N[C@@H]1C(=O)N2[C@@H]1SC(C)(C)[C@@H]2C(=O)O` [Oxacillin]: the MIC in assay [1] (setting [3]) came to 0.38 µg/mL (≈ 0.947 µM). For `NC[C@H]1O[C@H](O[C@H]2[C@H](O)[C@@H](O[C@H]3O[C@H](CO)[C@@H](O)[C@H](N)[C@H]3O)[C@H](N)C[C@@H]2N)[C@H](N)C[C@@H]1O` [Tobramycin], the MIC in assay [1] (setting [3]) worked out at 2 µg/mL (≈ 4.28 µM). On to `CN[C@H](CC(C)C)C(=O)N[C@H]1C(=O)N[C@@H](CC(N)=O)C(=O)N[C@H]2C(=O)N[C@H]3C(=O)N[C@H](C(=O)N[C@H](C(=O)O)c4cc(O)cc(O)c4-c4cc3ccc4O)[C@H](O)c3ccc(c(Cl)c3)Oc3cc2cc(c3O[C@@H]2O[C@H](CO)[C@@H](O)[C@H](O)[C@H]2O[C@H]2C[C@](C)(N)[C@H](O)[C@H](C)O2)Oc2ccc(cc2Cl)[C@H]1O` [Vancomycin], for which the MIC in assay [1] (Intestinimonas butyriciproducens, AF211) turned out to be 0.75 µg/mL (≈ 0.518 µM). Turning to Teicoplanin, the MIC in assay [1] (against strain AF211) was found to be 0.047 µg/mL.
